In patent US6608027B1, “Macrocyclic peptides active against the hepatitis C virus” (Boehringer Ingelheim (Canada) Ltd, priority 1999, dated 2003):

Biological target: T1, NS3 protease (Hepatitis C virus genotype 1b, UniProt P26663)
T1 construct: expressed in transfected cells; host or cells: Huh-7 human hepatoma cells, transient co-transfection (CMV promoter)
Assay: NS3 protease cell-based assay (SEAP reporter, Huh-7 cells)
Parameters: species or system HCV
Conditions: SEAP activity, 24-hour incubation, read-out: cell. act. (EC50 code)
Description: This assay is done with Huh-7 cells, a human cell line derived from a hepatoma, co-transfected with 2 DNA constructs: one (called NS3) expressing part of the HCV non-structural polyprotein fused to the tTA protein through an NS5A-NS5B cleavage site in the following order: NS3-NS4A-NS4B-NS5A-(NS5B)tTA where (NS5B) represents the 6 first amino acids of NS5
B. This polyprotein is expressed under the control of the CMV promoter, the other (called SEAP) expressing the reporter protein, secreted alkaline phosphatase (SEAP), under the regulation of a tTA-responsive promoter. The first construct leads to the expression of a polyprotein from which the different mature proteins are released through cleavage by the NS3 protease. It is believed that the mature viral proteins forms a complex at the membrane of the endoplasmic reticulum. tTA is a fusion protein, described by Gossen and Bujard (Proc. Natl. Acad. Sci. USA 89 (1992): 5547-5551), which contains a DNA-binding domain and a transcriptional activator. Release of the tTA protein requires an NS3-dependent cleavage at the NS5A-NS5B cleavage site between NS5A and itself. This last cleavage allows tTA to migrate to the nucleus and transactivate the SEAP gene. Therefore, reduction of NS3 proteolytic activity leads to confinement of tTA to the cytoplasm and concomitant decrease in SEAP activity.
To control for cellular activities other than inhibition of NS3 protease which are due to the compound, a parallel co-transfection is done with a construct expressing tTA alone and the same reporter construct such that SEAP activity is independent of the NS3 protease.
Protocol of the assay: Huh-7 cells, grown in CHO-SFMII (Life Technologies)+10% FCS (fetal calf serum) were co-transfected with the two DNA constructs in the following proportions: 7 μg NS3+500 ng SEAP+[…] FuGENE (Boehringer Mannheim) per 4×10^6 Huh-7 cells. After 5 hours at 37° C., the cells were washed, trypsinized and plated (at 80 000 cells/well) in 96-well plates containing a range of concentrations of the compounds to be tested. After a 24-hour incubation period, the SEAP activity in the medium was measured with the Phospha-Light kit (Tropix).
Analysis of the percent inhibition of SEAP activity with respect to compound concentration was performed with the SAS software to obtain the EC50.

T1 sequence (P26663 1658-1711): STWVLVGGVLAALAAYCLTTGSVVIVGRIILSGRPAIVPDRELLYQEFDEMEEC
T1 sequence (P26663 1027-1657): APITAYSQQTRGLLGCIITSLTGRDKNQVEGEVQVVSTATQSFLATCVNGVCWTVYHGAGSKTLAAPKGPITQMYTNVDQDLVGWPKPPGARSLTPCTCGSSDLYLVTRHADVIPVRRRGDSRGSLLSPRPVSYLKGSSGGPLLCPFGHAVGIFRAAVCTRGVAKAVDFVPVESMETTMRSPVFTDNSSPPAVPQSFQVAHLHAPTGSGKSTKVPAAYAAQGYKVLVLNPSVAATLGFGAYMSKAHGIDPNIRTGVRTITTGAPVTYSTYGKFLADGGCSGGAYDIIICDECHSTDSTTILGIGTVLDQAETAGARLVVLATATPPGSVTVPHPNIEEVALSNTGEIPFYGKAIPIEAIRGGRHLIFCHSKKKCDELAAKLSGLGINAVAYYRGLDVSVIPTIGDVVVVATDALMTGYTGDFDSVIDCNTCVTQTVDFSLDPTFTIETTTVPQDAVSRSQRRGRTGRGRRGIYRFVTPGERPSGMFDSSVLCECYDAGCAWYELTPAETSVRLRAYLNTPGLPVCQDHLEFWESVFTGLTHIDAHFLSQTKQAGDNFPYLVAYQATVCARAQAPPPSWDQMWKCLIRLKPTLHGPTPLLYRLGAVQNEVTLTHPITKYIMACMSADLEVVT

| SMILES | EC50 [nM] |
| --- | --- |
| COc1ccc2c(O[C@@H]3C[C@H]4C(=O)N[C@]5(C(=O)O)CC5/C=C\CCCCC[C@H](NC(=O)OC5CCCC5)C(=O)N4C3)cc(-c3csc(NC4CC4)n3)nc2c1 (stereo partly shown) [Compound 825] | ≤ 1000 |
| COc1ccc2c(O[C@@H]3C[C@H]4C(=O)N[C@]5(C(=O)O)C[C@H]5/C=C\CCCCC[C@H](NC(=O)OC(C)(C)C)C(=O)N4C3)cc(-c3nccs3)nc2c1 [Compound 705] | ≤ 1000 |
| COc1ccc2c(O[C@@H]3C[C@H]4C(=O)N[C@]5(C(=O)O)CC5/C=C\CCCCC[C@H](NC(=O)OC(C)(C)C)C(=O)N4C3)cc(-n3cccn3)nc2c1 (stereo partly shown) [Compound 733] | ≤ 1000 |
| COc1ccc2c(O[C@@H]3C[C@H]4C(=O)N[C@]5(C(=O)O)C[C@H]5/C=C\CCCCC[C@H](NC(=O)OC(C)(C)C)C(=O)N4C3)cc(C3CCC=CO3)nc2c1 (stereo partly shown) [Compound 732] | > 1000 |
| COc1ccc2c(O[C@@H]3C[C@H]4C(=O)N[C@]5(C(=O)O)CC5/C=C\CCCCC[C@H](NC(=O)OC(C)(C)C)C(=O)N4C3)cc(-c3nccn3C)nc2c1 (stereo partly shown) [Compound 726] | ≤ 1000 |
| CCOc1cc(O[C@@H]2C[C@H]3C(=O)N[C@]4(C(=O)O)C[C@H]4/C=C\CCCCC[C@H](NC(=O)OC(C)(C)C)C(=O)N3C2)c2ccc(OC)cc2n1 [Compound 712] | ≤ 1000 |
| COc1ccc2c(O[C@@H]3C[C@H]4C(=O)N[C@]5(C(=O)O)C[C@H]5/C=C\CCCCC[C@H](NC(=O)OC(C)(C)C)C(=O)N4C3)cc(-c3csc(N)n3)nc2c1 [Compound 731] | ≤ 1000 |
| COc1ccc2c(O[C@@H]3C[C@H]4C(=O)N[C@]5(C(=O)O)CC5CCCCCCC[C@H](NC(=O)OC5CCCC5)C(=O)N4C3)cc(-c3csc(NC(C)C)n3)nc2c1 (stereo partly shown) [Compound 911] | ≤ 1000 |
| COc1ccc2c(O[C@@H]3C[C@H]4C(=O)N[C@]5(C(=O)O)C[C@H]5/C=C\CCCCC[C@H](NC(=O)OC(C)(C)C)C(=O)N4C3)cc(-c3csc(NC=O)n3)nc2c1 [Compound 735] | ≤ 1000 |
| COc1ccc2c(O[C@@H]3C[C@H]4C(=O)N[C@]5(C(=O)O)CC5/C=C\CCCCC[C@H](NC(=O)OC5CCCC5)C(=O)N4C3)cc(-c3csc(NC4CCCC4)n3)nc2c1 (stereo partly shown) [Compound 827] | ≤ 1000 |
| COc1ccc2c(O[C@@H]3C[C@H]4C(=O)N[C@]5(C(=O)O)C[C@H]5/C=C\COCCC[C@H](NC(=O)OC(C)(C)C)C(=O)N4C3)cc(-c3ccccc3)nc2c1 [Compound 701] | > 1000 |
| CCNc1nc(-c2cc(O[C@@H]3C[C@H]4C(=O)N[C@]5(C(=O)O)CC5/C=C\CCCCC[C@H](NC(=O)OC5CCCC5)C(=O)N4C3)c3ccc(OC)cc3n2)cs1 (stereo partly shown) [Compound 810] | ≤ 1000 |
| COc1ccc2c(O[C@@H]3C[C@H]4C(=O)N[C@]5(C(=O)O)C[C@H]5/C=C\CCCCC[C@H](NC(=O)OC(C)(C)C)C(=O)N4C3)cc(-c3csc(NC(C)C)n3)nc2c1 [Compound 741] | ≤ 1000 |
| COC(=O)Nc1nc(-c2cc(O[C@@H]3C[C@H]4C(=O)N[C@]5(C(=O)O)C[C@H]5/C=C\CCCCC[C@H](NC(=O)OC(C)(C)C)C(=O)N4C3)c3ccc(OC)cc3n2)cs1 [Compound 736] | ≤ 1000 |
| COc1ccc2c(O[C@@H]3C[C@H]4C(=O)N[C@]5(C(=O)O)C[C@H]5/C=C\CCCCC[C@H](NC(=O)OC(C)(C)C)C(=O)N4C3)cc(-c3csc(C(C)C)n3)nc2c1 [Compound 707] | ≤ 1000 |
| CCNc1nc(-c2cc(O[C@@H]3C[C@H]4C(=O)N[C@]5(C(=O)O)CC5CCCCCCC[C@H](NC(=O)OC(C)(C)C)C(=O)N4C3)c3ccc(OC)cc3n2)cs1 (stereo partly shown) [Compound 703] | ≤ 1000 |
| COCc1cc(O[C@@H]2C[C@H]3C(=O)N[C@]4(C(=O)O)C[C@H]4/C=C\CCCCC[C@H](NC(=O)OC(C)(C)C)C(=O)N3C2)c2ccc(OC)cc2n1 [Compound 727] | > 1000 |
| COc1ccc2c(O[C@@H]3C[C@H]4C(=O)N[C@]5(C(=O)O)C[C@H]5/C=C\CCCCC[C@H](NC(=O)OC(C)(C)C)C(=O)N4C3)cc(-c3ccccn3)nc2c1 [Compound 704] | ≤ 1000 |
| COc1ccc2c(O[C@@H]3C[C@H]4C(=O)N[C@]5(C(=O)O)C[C@H]5/C=C\CCCCC[C@H](NC(=O)OC(C)(C)C)C(=O)N4C3)cc(-c3cccc(C)n3)nc2c1 [Compound 719] | ≤ 1000 |
| COc1ccc2c(O[C@@H]3C[C@H]4C(=O)N[C@]5(C(=O)O)CC5/C=C\CCCCC[C@H](NC(=O)OC5CCCC5)C(=O)N4C3)cc(-c3csc(NC(C)C)n3)nc2c1 (stereo partly shown) [Compound 822] | ≤ 1000 |

| SMILES | EC50 [nM] |
| --- | --- |
| COc1ccc2c(O[C@@H]3C[C@H]4C(=O)N[C@]5(C(=O)O)C[C@H]5/C=C\CCCCC[C@H](NC(=O)OC(C)(C)C)C(=O)N4C3)cc(-n3cccc3)nc2c1 [Compound 715] | ≤ 1000 |
| COc1ccc2c(O[C@@H]3C[C@H]4C(=O)N[C@]5(C(=O)O)CC5CCCCCCC[C@H](NC(=O)OC5CCCC5)C(=O)N4C3)cc(-n3cccc3)nc2c1 (stereo partly shown) [Compound 907] | ≤ 1000 |
| CCNc1nc(-c2cc(O[C@@H]3C[C@H]4C(=O)N[C@]5(C(=O)O)CC5CCCCCCC[C@H](NC(=O)OC5CCCC5)C(=O)N4C3)c3ccc(OC)cc3n2)cs1 (stereo partly shown) [Compound 910] | ≤ 1000 |
| COc1ccc(-c2cc(O[C@@H]3C[C@H]4C(=O)N[C@]5(C(=O)O)C[C@H]5/C=C\CCCCC[C@H](NC(=O)OC(C)(C)C)C(=O)N4C3)c3ccc(OC)cc3n2)nc1 [Compound 737] | ≤ 1000 |
| COc1ccc2c(O[C@@H]3C[C@H]4C(=O)N[C@]5(C(=O)O)CC5/C=C\CCCCC[C@H](NC(=O)OC5CCCC5)C(=O)N4C3)cc(-c3csc(NC4CCCCC4)n3)nc2c1 (stereo partly shown) [Compound 828] | ≤ 1000 |
| COc1ccc2c(O[C@@H]3C[C@H]4C(=O)N[C@]5(C(=O)O)CC5/C=C\CCCCC[C@H](NC(=O)OC5CCCC5)C(=O)N4C3)cc(-c3csc(NC(=O)OCC(C)C)n3)nc2c1 (stereo partly shown) [Compound 819] | ≤ 1000 |
| COc1ccc2c(O[C@@H]3C[C@H]4C(=O)N[C@]5(C(=O)O)CC5/C=C\CCCCC[C@H](NC(=O)OC(C)(C)C)C(=O)N4C3)cc(-n3ccc(C)n3)nc2c1 (stereo partly shown) [Compound 738] | ≤ 1000 |
| COc1ccc2c(O[C@@H]3C[C@H]4C(=O)N[C@]5(C(=O)O)CC5/C=C\CCCCC[C@H](NC(=O)OC(C)(C)C)C(=O)N4C3)cc(-n3ccnc3)nc2c1 (stereo partly shown) [Compound 718] | ≤ 1000 |
| COc1ccc2c(O[C@@H]3C[C@H]4C(=O)N[C@]5(C(=O)O)CC5CCCCCCC[C@H](NC(=O)OC5CCCC5)C(=O)N4C3)cc(-c3nc(C(C)C)cs3)nc2c1 (stereo partly shown) [Compound 906] | ≤ 1000 |
| COc1ccc2c(O[C@@H]3C[C@H]4C(=O)N[C@]5(C(=O)O)CC5/C=C\CCCCC[C@H](NC(=O)OC(C)(C)C)C(=O)N4C3)cc(-c3nc(C)no3)nc2c1 (stereo partly shown) [Compound 717] | ≤ 1000 |
| COc1ccc2c(O[C@@H]3C[C@H]4C(=O)N[C@]5(C(=O)O)CC5/C=C\CCCCC[C@H](NC(=O)OC(C)(C)C)C(=O)N4C3)cc(-c3nnc(C)o3)nc2c1 (stereo partly shown) [Compound 716] | > 1000 |
| CCNc1nc(-c2cc(O[C@@H]3C[C@H]4C(=O)N[C@]5(C(=O)O)C[C@H]5/C=C\CCCCC[C@H](NC(=O)OC(C)(C)C)C(=O)N4C3)c3ccc(OC)cc3n2)cs1 [Compound 708] | ≤ 1000 |
| COc1ccc2c(O[C@@H]3C[C@H]4C(=O)N[C@]5(C(=O)O)CC5/C=C\CCCCC[C@H](NC(=O)OC(C)(C)C)C(=O)N4C3)cc(-n3cc(C)cn3)nc2c1 (stereo partly shown) [Compound 734] | ≤ 1000 |
| COc1ccc2c(O[C@@H]3C[C@H]4C(=O)N[C@]5(C(=O)O)CC5CCCCCCC[C@H](NC(=O)OC5CCCC5)C(=O)N4C3)cc(-c3csc(NC(C)=O)n3)nc2c1 (stereo partly shown) [Compound 909] | ≤ 1000 |
| COc1ccc2c(O[C@@H]3C[C@H]4C(=O)N[C@]5(C(=O)O)CC5/C=C\CCCCC[C@H](NC(=O)OC(C)(C)C)C(=O)N4C3)cc(-c3nc(C(C)C)cs3)nc2c1 (stereo partly shown) [Compound 725] | ≤ 1000 |
| CNc1nc(-c2cc(O[C@@H]3C[C@H]4C(=O)N[C@]5(C(=O)O)C[C@H]5/C=C\CCCCC[C@H](NC(=O)OC(C)(C)C)C(=O)N4C3)c3ccc(OC)cc3n2)cs1 [Compound 729] | ≤ 1000 |
| COc1ccc2c(O[C@@H]3C[C@H]4C(=O)N[C@]5(C(=O)O)CC5/C=C\CCCCC[C@H](NC(=O)OC5CCCC5)C(=O)N4C3)cc(-c3csc(NC4CCC4)n3)nc2c1 (stereo partly shown) [Compound 826] | ≤ 1000 |
| COc1ccc2c(O[C@@H]3C[C@H]4C(=O)N[C@]5(C(=O)O)CC5CCCCCCC[C@H](NC(=O)OC5CCCC5)C(=O)N4C3)cc(-c3csc(N)n3)nc2c1 (stereo partly shown) [Compound 908] | ≤ 1000 |
| COc1ccc2c(O[C@@H]3C[C@H]4C(=O)N[C@]5(C(=O)O)C[C@H]5/C=C\CCCCC[C@H](NC(=O)OC(C)(C)C)C(=O)N4C3)cc(-c3csc(NC(C)=O)n3)nc2c1 [Compound 702] | ≤ 1000 |
| COc1ccc2c(O[C@@H]3C[C@H]4C(=O)N[C@]5(C(=O)O)C[C@H]5/C=C\CCCCC[C@H](NC(=O)OC(C)(C)C)C(=O)N4C3)cc(C)nc2c1 [Compound 728] | > 1000 |
